Measured values taken from ChEMBL document CHEMBL5338818, “Discovery of the First Potent, Selective, and In Vivo Efficacious Polo-like Kinase 4 Proteolysis Targeting Chimera Degrader for the Treatment of TRIM37-Amplified Breast Cancer” (J Med Chem, 2023).
Calls of active or inactive are those of the source. The calls are words filed in the database; no cut-off is given here.

What was measured:
[1] = biological target: T1, Serine/threonine-protein kinase PLK4 (Homo sapiens, UniProt O00444); test: Inhibition of PLK4 (unknown origin) incubated for 1 hr in presence of kinase tracer 236 by FRET assay
T1 sequence (O00444 whole entry): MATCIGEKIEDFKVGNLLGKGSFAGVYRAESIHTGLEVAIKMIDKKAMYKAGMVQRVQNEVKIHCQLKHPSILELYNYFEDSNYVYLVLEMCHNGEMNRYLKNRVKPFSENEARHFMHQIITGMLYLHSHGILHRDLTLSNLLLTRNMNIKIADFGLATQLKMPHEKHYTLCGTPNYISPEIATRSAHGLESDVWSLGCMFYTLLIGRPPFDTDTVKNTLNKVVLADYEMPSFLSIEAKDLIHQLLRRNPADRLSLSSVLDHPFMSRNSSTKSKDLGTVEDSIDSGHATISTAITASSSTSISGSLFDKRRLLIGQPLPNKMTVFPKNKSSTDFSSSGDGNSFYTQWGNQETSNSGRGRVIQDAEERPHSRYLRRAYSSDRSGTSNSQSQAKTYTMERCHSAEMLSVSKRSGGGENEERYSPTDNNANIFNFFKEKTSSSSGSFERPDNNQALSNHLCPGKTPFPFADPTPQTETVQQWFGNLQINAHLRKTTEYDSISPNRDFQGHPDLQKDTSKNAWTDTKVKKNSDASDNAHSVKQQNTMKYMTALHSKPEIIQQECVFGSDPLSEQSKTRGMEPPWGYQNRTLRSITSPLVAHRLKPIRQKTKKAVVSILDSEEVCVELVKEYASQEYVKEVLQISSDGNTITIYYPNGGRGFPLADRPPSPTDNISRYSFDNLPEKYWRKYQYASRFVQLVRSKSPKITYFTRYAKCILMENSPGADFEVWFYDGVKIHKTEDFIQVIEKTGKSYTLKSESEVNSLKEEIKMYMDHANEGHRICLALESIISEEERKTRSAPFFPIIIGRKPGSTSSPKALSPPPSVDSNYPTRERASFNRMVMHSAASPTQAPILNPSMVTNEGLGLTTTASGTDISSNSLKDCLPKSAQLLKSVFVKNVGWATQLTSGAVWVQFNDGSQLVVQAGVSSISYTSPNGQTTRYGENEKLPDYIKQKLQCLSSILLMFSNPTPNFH

[2] = biological target: T2, Protein cereblon/Serine/threonine-protein kinase PLK4 (Homo sapiens, UniProt O00444+Q96SW2); test: Protac activity at CRBN/PLK4 in human MCF7 cells at 1 uM incubated for 48 hrs by Western blot analysis; assay type: cell-based
Target sequence in this assay (Q96SW2 whole entry, looked up, one chain of several): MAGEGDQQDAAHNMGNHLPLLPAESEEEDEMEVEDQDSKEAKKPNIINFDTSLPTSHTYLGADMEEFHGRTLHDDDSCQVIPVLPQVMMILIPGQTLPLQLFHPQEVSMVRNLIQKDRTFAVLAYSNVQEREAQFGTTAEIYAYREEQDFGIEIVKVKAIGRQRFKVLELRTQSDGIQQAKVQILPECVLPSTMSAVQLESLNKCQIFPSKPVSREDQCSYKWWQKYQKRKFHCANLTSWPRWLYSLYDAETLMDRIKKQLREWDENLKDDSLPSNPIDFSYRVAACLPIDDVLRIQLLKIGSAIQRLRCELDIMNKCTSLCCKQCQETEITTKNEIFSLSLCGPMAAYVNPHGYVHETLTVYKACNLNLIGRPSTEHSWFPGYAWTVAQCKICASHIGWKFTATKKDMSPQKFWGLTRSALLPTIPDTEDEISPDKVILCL

[3] = biological target: T2, Protein cereblon/Serine/threonine-protein kinase PLK4; test: Protac activity at CRBN/PLK4 in human MCF7 cells by Western blot analysis; assay type: cell-based
Target sequence in this assay (Q96SW2 whole entry, one chain of several): as the sequence (Q96SW2 whole entry, looked up, one chain of several) above

[4] = biological target: T3, Serine/threonine-protein kinase PLK4 (Homo sapiens) (UniProt O00444); test: Inhibition of PLK4 in human MCF7 cells assessed as reduction in FBXW5 inactivation by Western blot analysis; assay type: cell-based; conditions: dose 1-1000 nM
T3 sequence (whole entry): T1 sequence (O00444 whole entry)

[5] = biological target: T3, Serine/threonine-protein kinase PLK4 (Homo sapiens); test: Inhibition of PLK4 in human MCF7 cells assessed as increase in SAS-6 degradation by Western blot analysis; assay type: cell-based; conditions: dose 1-1000 nM
[6] = tested on: MCF7; test: Inhibition of colony formation in human MCF7 cells incubated for 14 days by crystal violet staining based assay; assay type: functional, cell-based; conditions: dose 0.05-1 µM, time 14.0 day
[7] = tested on: MCF7; test: Induction of cell senescence in human MCF7 cells assessed by increase SA-beta-Gal positive cells at 2 uM measured after 48 hrs; assay type: functional, cell-based
[8] = tested on: MCF7; test: Inhibition of human MCF7 cells migration incubated for 48 hrs by inverted microscopic analysis; assay type: functional, cell-based; conditions: dose 0.1-1 µM
[9] = Stability in human plasma assessed as compound remaining at 100 uM after 10 mins by LC-MS/MS analysis (reference value: 100%); assay type: ADME, cell-free; conditions: read-out: Stability
[10] = Stability in human plasma assessed as compound remaining at 100 uM after 30 mins by LC-MS/MS analysis (reference value: 100%); assay type: ADME, cell-free; conditions: read-out: Stability
[11] = Metabolic stability in mouse liver microsomes assessed as half life at 100 uM incubated for 60 mins in presence of NADPH by LC-MS/MS analysis; assay type: ADME, Microsome
[12] = Metabolic stability in mouse liver microsomes assessed as intrinsic clearance at 100 uM incubated for 60 mins in presence of NADPH by LC-MS/MS analysis; assay type: ADME, Microsome; conditions: read-out: CLH
[13] = Metabolic stability in mouse liver microsomes assessed as compound remaining at 100 uM incubated for 60 mins in presence of NADPH by LC-MS/MS analysis; assay type: ADME, Microsome; conditions: read-out: Stability
[14] = biological target: T4, CYP1A2 (Homo sapiens, UniProt P05177); test: Inhibition of CYP1A2 in human liver microsomes at 10 uM using alpha-Naphthoflavone as substrate preincubated for 10 mins followed by NADPH regenerating system addition and measured after 15 mins by LC-MS/MS analysis relative to control; assay type: ADME, Microsome; conditions: time 25 min
T4 sequence (P05177 whole entry): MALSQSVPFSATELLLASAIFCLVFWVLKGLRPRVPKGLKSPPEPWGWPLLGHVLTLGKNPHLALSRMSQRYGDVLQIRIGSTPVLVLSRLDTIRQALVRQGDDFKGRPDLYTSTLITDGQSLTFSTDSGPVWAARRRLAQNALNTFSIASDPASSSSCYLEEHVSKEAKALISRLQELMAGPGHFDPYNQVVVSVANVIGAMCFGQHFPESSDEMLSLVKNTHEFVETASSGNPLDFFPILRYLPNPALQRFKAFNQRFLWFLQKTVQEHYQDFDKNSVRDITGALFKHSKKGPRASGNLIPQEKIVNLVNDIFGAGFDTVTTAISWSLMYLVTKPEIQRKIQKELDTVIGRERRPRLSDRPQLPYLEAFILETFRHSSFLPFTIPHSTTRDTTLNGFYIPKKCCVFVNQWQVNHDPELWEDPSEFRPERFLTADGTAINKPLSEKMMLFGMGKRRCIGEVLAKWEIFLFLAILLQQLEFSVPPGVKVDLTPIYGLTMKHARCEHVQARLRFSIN

[15] = biological target: CYP2C19 (Homo sapiens, UniProt P33261); test: Inhibition of CYP2C19 in human liver microsomes at 10 uM using (+)-3-benzylnirvanol as substrate preincubated for 10 mins followed by NADPH regenerating system addition and measured after 15 mins by LC-MS/MS analysis relative to control; assay type: ADME, Microsome; conditions: probe (+)-3-benzylnirvanol (named as substrate in the text), time 25 min
[16] = tested on: CYP2D6; test: Inhibition of CYP2D6 in human liver microsomes at 10 uM using quinidine as substrate preincubated for 10 mins followed by NADPH regenerating system addition and measured after 15 mins by LC-MS/MS analysis relative to control; assay type: ADME, Microsome; conditions: time 25 min
[17] = AUClast in ICR mouse at 20 mg/kg, ip measured upto 24 hrs by LC-M/MS analysis; assay type: ADME, organism-based; design: dose 20 mg/kg, time < 24 hrs, route ip; conditions: in vivo
[18] = Observed mean […] time infinity in ICR mouse at 20 mg/kg, ip measured upto 24 hrs by LC-M/MS analysis; assay type: ADME, organism-based; conditions: in vivo
[19] = Toxicity in nu/nu mouse xenografted with human MCF7 cells assessed as change in body weight at 20 mg/kg, ip administered once every other day for 21 days; assay type: organism-based; conditions: in vivo, 504 h, time 21 day
[20] = Toxicity in nu/nu mouse xenografted with human MCF7 cells assessed as effect on lungs at 20 mg/kg, ip administered once every other day for 21 days by HE staining based analysis; assay type: organism-based; conditions: in vivo, 504 h, time 21 day

Sequence of CYP2C19 (P33261 whole entry): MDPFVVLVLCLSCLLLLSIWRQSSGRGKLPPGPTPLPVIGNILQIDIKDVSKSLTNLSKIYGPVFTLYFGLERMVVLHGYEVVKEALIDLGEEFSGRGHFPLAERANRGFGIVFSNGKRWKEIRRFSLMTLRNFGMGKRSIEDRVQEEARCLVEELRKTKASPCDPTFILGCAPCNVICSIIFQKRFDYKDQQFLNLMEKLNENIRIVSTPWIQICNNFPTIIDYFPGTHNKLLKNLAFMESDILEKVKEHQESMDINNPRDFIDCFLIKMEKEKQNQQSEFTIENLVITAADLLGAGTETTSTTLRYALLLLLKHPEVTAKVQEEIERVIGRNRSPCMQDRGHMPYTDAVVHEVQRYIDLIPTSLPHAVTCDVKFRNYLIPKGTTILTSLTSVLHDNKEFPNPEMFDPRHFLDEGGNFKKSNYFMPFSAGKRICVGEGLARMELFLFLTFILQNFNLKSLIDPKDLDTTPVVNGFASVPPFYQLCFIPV

IC50 [1]: 8.4 nM
Activity [2]: 73.4%
DC50 [3]: 19.5 nM
inhibition [4]: Dose-Dependent Effect
inhibition [5]: Dose-Dependent Effect
remaining at 10 min, 100 µM [9]: 93.9%
remaining at 0.5 h, 100 µM [10]: 96.6%
half-life at 100 µM [11]: 1.35 h
microsomal CLint at 100 µM [12]: 17.1 µL/min/mg
remaining at 1 h, 100 µM [13]: 56.4%
inhibition at 0.25 h, 10 µM [14]: 10.4%
inhibition at 0.25 h, 10 µM [15]: 23.4%
inhibition at 0.25 h, 10 µM [16]: 5.6%
AUC(0-t) at 24 h [17]: 14000 ng·h/mL
Time [18]: 3.93 h
Structure (SMILES): Cc1cc(Nc2nc(NCc3ccc(F)cc3F)nc3c2cnn3C2CCN(C(=O)C3CCN(c4ccc5c(c4)C(=O)N(C4CCC(=O)NC4=O)C5=O)CC3)CC2)n[nH]1 (stereo not given)
inhibition [6]: Dose-Dependent Effect
Activity [7]: Active
inhibition [8]: Dose-Dependent Effect
Activity [19]: Non-Toxic
Activity [20]: Non-Toxic
